Results reported in patent US10851401B2, “Broth microdilution method for evaluating and determining minimal inhibitory concentration of antibacterial polypeptides” (priority 2016, dated 2020).

Tested on: Staphylococcus aureus strains including MSSA and MRSA strains
Experiment: Vancomycin in modified BMD method versus standard unsupplemented CA-MHB (FIG. 10)
Format: cell-based
Conditions: comparison of the two media
Procedure: FIG. 10 depicts vancomycin activity assessed using the modified BMD method in comparison to method with standard CAMHB broth unsupplemented. Various Staphylococcus aureus strains including MSSA and MRSA strains were evaluated.
Standard antibiotic vancomycin was evaluated in the modified BMD method. The MIC50, MIC90 and range were equivalent using standard CA-MHB versus CA-MHB supplemented with horse serum and DTT (FIG. 10).

For `CN[C@H](CC(C)C)C(=O)N[C@H]1C(=O)N[C@@H](CC(N)=O)C(=O)N[C@H]2C(=O)N[C@H]3C(=O)N[C@H](C(=O)N[C@H](C(=O)O)c4cc(O)cc(O)c4-c4cc3ccc4O)[C@H](O)c3ccc(c(Cl)c3)Oc3cc2cc(c3O[C@@H]2O[C@H](CO)[C@@H](O)[C@H](O)[C@H]2O[C@H]2C[C@](C)(N)[C@H](O)[C@H](C)O2)Oc2ccc(cc2Cl)[C@H]1O` [vancomycin], the “MIC50, MIC90 and range, standard CA-MHB versus CA-MHB supplemented with horse serum and DTT” value was “equivalent”.
